Results from the NIST ThermoML archive (doi:10.1021/acs.jced.8b00250).

Assay: mn = molality of the nth substance listed, in mol/kg
Details: 298.15 K, 101.3 kPa, Liquid, Alternating current cell with electrodes

CCCCC(CC)COC(=O)CC(C(=O)OCC(CC)CCCC)S(=O)(=O)[O-].[Na+] (stereo unspecified) [sodium bis(2-ethylhexyl) sulfosuccinate] + O
Details	electrical conductivity [S/m]
m1 = 0.1687	0.00147
m1 = 0.5229	0.00389
m1 = 0.8008	0.00578
m1 = 1.108	0.00786
m1 = 1.374	0.00965
m1 = 1.663	0.0116
m1 = 2.015	0.0139
m1 = 2.327	0.0161
m1 = 2.661	0.0184
m1 = 3.026	0.0213
m1 = 3.398	0.0239
m1 = 3.654	0.0258
m1 = 3.95	0.0279
m1 = 4.202	0.0296
m1 = 4.434	0.0313
m1 = 4.65	0.0328
m1 = 4.896	0.0345
m1 = 5.165	0.0363
m1 = 5.513	0.0387
m1 = 5.782	0.0405

O [water] + CCCCC(CC)COC(=O)CC(C(=O)OCC(CC)CCCC)S(=O)(=O)[O-].[Na+]
Details	electrical conductivity [S/m]
m2 = 0	0.000327
